Activity calls are given as the source filed them. The calls are words filed in the database; no cut-off is given here.
Key:
Fusarium solani [1] = experiment: Compound was tested for the antifungal activity against Fusarium solani (R-2800) at a concentration of 1 ug/disk; zone of inhibition was measured after 48 hr incubation; incomplete inhibition observed; format: functional
Penicillium citrinum [2] = experiment: Compound was tested for the antifungal activity against Penicillium citrinum (R-3703) at a concentration of 1 ug/disk; zone of inhibition was measured after 48 hr incubation.; format: functional
Aspergillus fumigatus [3] = experiment: Compound was tested for the antifungal activity against Aspergillus fumigatus (R-1301) at a concentration of 1 ug/disk; zone of inhibition was measured after 48 hr incubation.; format: functional
Aspergillus fumigatus [4] = experiment: Compound was tested for the antifungal activity against Aspergillus fumigatus (R-1301) at a concentration of 10 ug/disk; zone of inhibition was measured after 48 hr incubation.; format: functional
Saccharomyces cerevisiae [5] = experiment: Compound was tested for the antifungal activity against Saccharomyces cerevisiae (IAM4861) at a concentration of 1 ug/disk; zone of inhibition was measured after 48 hr incubation.; format: functional
Fusarium solani [6] = experiment: Compound was tested for the antifungal activity against Fusarium solani (R-2800) at a concentration of 10 ug/disk; zone of inhibition was measured after 48 hr incubation; incomplete inhibition observed; format: functional
Candida albicans [7] = experiment: Compound was tested for the antifungal activity against Candida albicans (IFO1594) at a concentration of 1 ug/disk; zone of inhibition was measured after 48 hr incubation.; format: functional
Fusarium solani [8] = experiment: Compound was tested for the antifungal activity against Fusarium solani (R-2800) at a concentration of 0.1 ug/disk; zone of inhibition was measured after 48 hr incubation; NE denotes not effective; format: functional, organism-based
Candida albicans [9] = experiment: Compound was tested for the antifungal activity against Candida albicans (IFO1594) at a concentration of 0.1 ug/disk; zone of inhibition was measured after 48 hr incubation; +/- denotes slightly effective; format: functional, organism-based
Penicillium citrinum [10] = experiment: Compound was tested for the antifungal activity against Penicillium citrinum (R-3703) at a concentration of 10 ug/disk; zone of inhibition was measured after 48 h incubation.; format: functional
Saccharomyces cerevisiae [11] = experiment: Compound was tested for the antifungal activity against Saccharomyces cerevisiae (IAM4861) at a concentration of 10 ug/disk; zone of inhibition was measured after 48 hr incubation.; format: functional
MRC5 [12] = experiment: Cytotoxicity against human diploid embryotic cell line (MRC-5); format: functional, cell-based
Candida albicans [13] = experiment: Compound was tested for the antifungal activity against Candida albicans (IFO1594) at a concentration of 10 ug/disk; zone of inhibition was measured after 48 hr incubation.; format: functional
Aspergillus fumigatus [14] = experiment: Compound was tested for the antifungal activity against Aspergillus fumigatus (R-1301) at a concentration of 0.1 ug/disk; zone of inhibition was measured after 48 hr incubation.; format: functional
Penicillium citrinum [15] = experiment: Compound was tested for the antifungal activity against Penicillium citrinum (R-3703) at a concentration of 0.1 ug/disk; zone of inhibition was measured after 48 hr incubation; +/- denotes slightly effective; format: functional, organism-based
Saccharomyces cerevisiae [16] = experiment: Compound was tested for the antifungal activity against Saccharomyces cerevisiae (IAM4861) at a concentration of 0.1 ug/disk; zone of inhibition was measured after 48 hr incubation.; format: functional
Candida albicans [17] = experiment: Compound was tested for the antifungal activity against Candida albicans (IFO1594) at a concentration of 10 ug/disk; zone of inhibition was measured after 48 hr incubation; incomplete inhibition observed; format: functional
Candida albicans [18] = experiment: Compound was tested for the antifungal activity against Candida albicans (IFO1594) at a concentration of 1 ug/disk; zone of inhibition was measured after 48 h incubation; incomplete inhibition observed; format: functional
Fusarium solani [19] = experiment: Compound was tested for the antifungal activity against Fusarium solani (R-2800) at a concentration of 10 ug/disk; zone of inhibition was measured after 48 hr incubation; NE denotes not effective; format: functional, organism-based
Fusarium solani [20] = experiment: Compound was tested for the antifungal activity against Fusarium solani (R-2800) at a concentration of 1 ug/disk; zone of inhibition was measured after 48 hr incubation; NE denotes not effective; format: functional, organism-based
Aspergillus fumigatus [21] = experiment: Compound was tested for the antifungal activity against Aspergillus fumigatus (R-1301) at a concentration of 1 ug/disk; zone of inhibition was measured after 48 hr incubation; +/- denotes slightly effective; format: functional, organism-based
Saccharomyces cerevisiae [22] = experiment: Compound was tested for the antifungal activity against Saccharomyces cerevisiae (IAM4861) at a concentration of 0.1 ug/disk; zone of inhibition was measured after 48 hr incubation; incomplete inhibition observed; format: functional
Saccharomyces cerevisiae [23] = experiment: Compound was tested for the antifungal activity against Saccharomyces cerevisiae (IAM4861) at a concentration of 1 ug/disk; zone of inhibition was measured after 48 hr incubation; incomplete inhibition observed; format: functional
Saccharomyces cerevisiae [24] = experiment: Compound was tested for the antifungal activity against Saccharomyces cerevisiae (IAM4861) at a concentration of 10 ug/disk; zone of inhibition was measured after 48 hr incubation; incomplete inhibition observed; format: functional
Aspergillus fumigatus [25] = experiment: Compound was tested for the antifungal activity against Aspergillus fumigatus (R-1301) at a concentration of 0.1 ug/disk; zone of inhibition was measured after 48 hr incubation; NE denotes not effective; format: functional, organism-based
Candida albicans [26] = experiment: Compound was tested for the antifungal activity against Candida albicans (IFO1594) at a concentration of 0.1 ug/disk; zone of inhibition was measured after 48 h incubation; NE denotes not effective; format: functional, organism-based
Aspergillus fumigatus [27] = experiment: Compound was tested for the antifungal activity against Aspergillus fumigatus (R-1301) at a concentration of 10 ug/disk; zone of inhibition was measured after 48 hr incubation; format: functional
Saccharomyces cerevisiae [28] = experiment: Compound was tested for the antifungal activity against Saccharomyces cerevisiae (IAM4861) at a dose of 1 ug/disk; the diameter of each inhibition zone was measured after 48 hr incubation.; format: functional
Candida albicans [29] = experiment: Compound was tested for the antifungal activity against Candida albicans (IFO1594) at a concentration of 1 ug/disk; zone of inhibition was measured after 48 hr incubation; format: functional
Penicillium citrinum [30] = experiment: Compound was tested for the antifungal activity against Penicillium citrinum (R-3703) at a concentration of 0.1 ug/disk; zone of inhibition was measured after 48 hr incubation.; format: functional
Aspergillus fumigatus [31] = experiment: Compound was tested for the antifungal activity against Aspergillus fumigatus (R-1301) at a concentration of 0.1 ug/disk; zone of inhibition was measured after 48 hr incubation; +/- denotes slightly effective; format: functional, organism-based
Saccharomyces cerevisiae [32] = experiment: Compound was tested for the antifungal activity against Saccharomyces cerevisiae (IAM4861) at a concentration of 0.1 ug/disk; zone of inhibition was measured after 48 hr incubation; +/- denotes slightly effective; format: functional, organism-based
Penicillium citrinum [33] = experiment: Compound was tested for the antifungal activity against Penicillium citrinum (R-3703) at a concentration of 10 ug/disk; the diameter of each inhibition zone was measured after 48 hr incubation; NE denotes not effective; format: functional, organism-based
Penicillium citrinum [34] = experiment: Compound was tested for the antifungal activity against Penicillium citrinum (R-3703) at a concentration of 1 ug/disk; zone of inhibition was measured after 48 hr incubation; NE denotes not effective; format: functional, organism-based
Penicillium citrinum [35] = experiment: Compound was tested for the antifungal activity against Penicillium citrinum (R-3703) at a concentration of 0.1 ug/disk; zone of inhibition was measured after 48 hr incubation; NE denotes not effective; format: functional, organism-based
MRC5 [36] = experiment: Cytotoxicity against the human diploid embryotic cell line (MRC-5); format: functional, cell-based

Row | Compound | Diameter of inhibition zone (Penicillium citrinum [2]) [mm] | Diameter of inhibition zone (Aspergillus fumigatus [3]) [mm] | Diameter of inhibition zone (Aspergillus fumigatus [4]) [mm] | Diameter of inhibition zone (Fusarium solani [8]) | Diameter of inhibition zone (Candida albicans [9]) | Diameter of inhibition zone (Penicillium citrinum [10]) [mm] | Diameter of inhibition zone (Saccharomyces cerevisiae [11]) [mm] | IC50 (MRC5 [12]; Homo sapiens, MRC5) [µM] | Diameter of inhibition zone (Candida albicans [13]) [mm] | Diameter of inhibition zone (Penicillium citrinum [15]) | Diameter of inhibition zone (Candida albicans [17]) [mm] | Diameter of inhibition zone (Candida albicans [18]) [mm] | Diameter of inhibition zone (Fusarium solani [19]) | Diameter of inhibition zone (Fusarium solani [20]) | Diameter of inhibition zone (Saccharomyces cerevisiae [22]) [mm] | Diameter of inhibition zone (Saccharomyces cerevisiae [23]) [mm] | Diameter of inhibition zone (Saccharomyces cerevisiae [24]) [mm] | Diameter of inhibition zone (Aspergillus fumigatus [25]) | Diameter of inhibition zone (Penicillium citrinum [30]) [mm] | other results
1 | CO\C=C(C(=O)OC)/C(C)=C(\C=C\c1ccc2ccccc2c1)OC | 14 | 13 | 18 | inactive | Weak activity | 19 | 37 | > 100 | 26 | Weak activity | – | – | – | – | – | – | – | – | – | Diameter of inhibition zone (Fusarium solani [1]): 14 mm; Diameter of inhibition zone (Saccharomyces cerevisiae [5]): 30 mm; Diameter of inhibition zone (Fusarium solani [6]): 13 mm; Diameter of inhibition zone (Candida albicans [7]): 16 mm; Diameter of inhibition zone (Aspergillus fumigatus [14]): 4 mm; Diameter of inhibition zone (Saccharomyces cerevisiae [16]): 12 mm
2 | CO\C=C(C(=O)OC)/C(C)=C(\C=C\c1ccc2c(c1)OCO2)OC | 10 | – | 22 | inactive | Weak activity | 18 | – | > 100 | – | Weak activity | 32 | 22 | inactive | inactive | 8 | 36 | 42 | inactive | – | Diameter of inhibition zone (Aspergillus fumigatus [21]): Weak activity
3 | NYSTATIN [listing 1 of 2 here] | – | – | 14 | – | – | 12 | 18 | – | 16 | – | – | – | inactive | – | – | – | – | – | – | –
4 | CO\C=C(C(=O)OC)/C(C)=C(\C=C\c1cccc2ccccc12)OC | 12 | 10 | – | inactive | – | 17 | 22 | > 100 | 15 | Weak activity | – | – | inactive | inactive | – | – | – | inactive | – | Diameter of inhibition zone (Candida albicans [26]): inactive; Diameter of inhibition zone (Aspergillus fumigatus [27]): 14 mm; Diameter of inhibition zone (Saccharomyces cerevisiae [28]): 18 mm; Diameter of inhibition zone (Candida albicans [29]): 5 mm; Diameter of inhibition zone (Saccharomyces cerevisiae [16]): 5 mm
5 | CO\C=C(C(=O)OC)/C(C)=C(\C=C\c1ccc(OC)cc1)OC | 23 | 18 | 29 | inactive | Weak activity | 29 | – | 35 | – | – | 33 | 27 | inactive | inactive | 28 | 36 | 42 | – | 9 | Diameter of inhibition zone (Aspergillus fumigatus [14]): 4 mm
6 | NYSTATIN [listing 2 of 2 here] | – | – | – | – | – | – | – | – | – | – | – | – | – | – | – | – | – | – | – | IC50 (MRC5 [12]; mrc5): 34 µM
7 | C=CC(C)(C)O[C@H]1COc2ccc(/C=C/C(OC)=C(C)\C(=C/OC)C(=O)OC)cc2OC1(C)C | – | 8 | 10 | inactive | – | – | 25 | 0.36 | 22 | – | – | – | – | – | – | – | – | – | – | Diameter of inhibition zone (Fusarium solani [1]): 19 mm; Diameter of inhibition zone (Candida albicans [26]): inactive; Diameter of inhibition zone (Saccharomyces cerevisiae [5]): 20 mm; Diameter of inhibition zone (Fusarium solani [6]): 25 mm; Diameter of inhibition zone (Aspergillus fumigatus [31]): Weak activity; Diameter of inhibition zone (Saccharomyces cerevisiae [32]): Weak activity; Diameter of inhibition zone (Candida albicans [7]): 17 mm; Diameter of inhibition zone (Penicillium citrinum [33]): inactive; Diameter of inhibition zone (Penicillium citrinum [34]): inactive; Diameter of inhibition zone (Penicillium citrinum [35]): inactive
8 | CO\C=C(C(=O)OC)/C(C)=C(\C=C\c1cccc(OC)c1)OC | 19 | 9 | 23 | inactive | Weak activity | 25 | – | 27 | – | – | 32 | 27 | inactive | inactive | 16 | 29 | 35 | inactive | 8 | –
9 | CO\C=C(C(=O)OC)/C(C)=C(\C=C\c1ccccc1)OC [9-METHOXYSTROBILURIN A] | 18 | 15 | 31 | inactive | incomplete inhibition | 28 | – | – | – | – | 36 | 28 | inactive | inactive | 17 | 40 | 49 | – | 4 | IC50 (MRC5 [36]): 34 µM; Diameter of inhibition zone (Aspergillus fumigatus [31]): slightly effective
10 | CO\C=C(C(=O)OC)/C(C)=C(\C=C\c1ccc(OC)c(OC)c1)OC | 13 | – | 20 | inactive | Weak activity | 22 | – | 12 | – | Weak activity | 34 | 26 | inactive | inactive | 20 | 38 | 43 | inactive | – | Diameter of inhibition zone (Aspergillus fumigatus [21]): Weak activity
